Like-named read-outs stand apart in the source and are kept apart here.
Columns and labels:
Assay in all cases: NCI SRB assay
RXF 393 = assay type: cell-based, human; details: for CC50: read-out: LC50 (the source's name)
K-562 = assay type: cell-based, human; details: for CC50: read-out: LC50 (the source's name)
OVCAR-4 = assay type: cell-based, human; details: for CC50: read-out: LC50 (the source's name)
HL-60(TB) = assay type: cell-based, human; details: for CC50: read-out: LC50 (the source's name)
A549/ATCC = assay type: cell-based, human
SF-268 = assay type: cell-based, human; details: for CC50: read-out: LC50 (the source's name)
DU-145 = assay type: cell-based, human; details: for CC50: read-out: LC50 (the source's name)
MDA-MB-231 = assay type: cell-based; details: for CC50: read-out: LC50 (the source's name)
UO-31 = assay type: cell-based, human; details: for CC50: read-out: LC50 (the source's name)
NCI-H322M = assay type: cell-based, human; details: for CC50: read-out: LC50 (the source's name)
SN12C = assay type: cell-based, human; details: for CC50: read-out: LC50 (the source's name)
COLO 205 = assay type: cell-based, human
RPMI-8226 = assay type: cell-based, human; details: for CC50: read-out: LC50 (the source's name)
HCT-15 = assay type: cell-based, human
SR = assay type: cell-based, human
[1] = Homo sapiens, K562, K-562, 5-dose
[2] = Homo sapiens, OVCAR-4, OVCAR-4, 5-dose
[3] = Homo sapiens, UO-31, UO-31, 5-dose
[4] = Homo sapiens, SN12C, SN 12 C, 5-dose
[5] = Homo sapiens, RPMI-8226, RPMI-8226, 5-dose
[6] = Homo sapiens, HCT-15, HCT-15, 5-dose

Work on Cc1ccc(-c2nc(Nc3ccccc3C(=O)O)c3ccccc3n2)cc1 [6b, 2-((2-(p-Tolyl)quinazolin-4-yl)amino)benzoic acid] yielded a CC50 (RXF 393; Homo sapiens, RXF 393, RXF 393, 5-dose) greater than 100 µM, a GI50 (RXF 393; Homo sapiens, RXF 393, 5-dose) of 13.1 µM and a TGI (RXF 393; RXF 393, 5-dose) of 65.9 µM. It also gave a TGI (RXF 393; RXF 393, 5-dose, listed as D - 835857) of 6.59E-5 Molar, a CC50 (RXF 393; RXF 393, 5-dose) of less than 100 µM and a GI50 (K-562; [1]) of 7.05 µM. For the same compound, the CC50 (K-562; [1]) was greater than 100 µM, the GI% (K-562; K-562, 10 μM) was 82% and the “Growth Percent” value (K-562; K-562, 1.00E-5 Molar) was 17.64%. It also gave a TGI (K-562; K-562, 5-dose) of less than 100 µM, a TGI (K-562; K-562, 5-dose, listed as D - 835857) greater than 1.00E-4 Molar and a CC50 (K-562; K-562, 5-dose) of less than 100 µM. It also gave a GI50 (OVCAR-4; [2]) of 8.77 µM, a CC50 (OVCAR-4; [2]) greater than 100 µM and a GI% (OVCAR-4; OVCAR-4, 10 μM) of 78%. The “Growth Percent” value (OVCAR-4; OVCAR-4, 1.00E-5 Molar) was 21.83%, the GI50 (OVCAR-4; OVCAR-4, 5-dose) was 8.8 µM and the TGI (OVCAR-4; OVCAR-4, 5-dose) was less than 100 µM. It also gave a TGI (OVCAR-4; OVCAR-4, 5-dose, listed as D - 835857) greater than 1.00E-4 Molar, a CC50 (OVCAR-4; OVCAR-4, 5-dose) of less than 100 µM and a GI% (HL-60(TB); HL-60(TB), 10 μM) of 82%. The “Growth Percent” value (HL-60(TB); HL-60(TB), 1.00E-5 Molar) was 17.80%, the TGI (HL-60(TB); HL-60(TB), 5-dose) was 75.4 µM and the TGI (HL-60(TB); HL-60(TB), 5-dose, listed as D - 835857) was 7.54E-5 Molar. It also gave a CC50 (HL-60(TB); HL-60(TB), 5-dose) of less than 100 µM, a CC50 (HL-60(TB); Homo sapiens, HL-60, HL-60(TB), 5-dose) greater than 100 µM and a GI50 (HL-60(TB); Homo sapiens, HL-60(TB), 5-dose) of 12.9 µM. The GI% (A549/ATCC; A549/ATCC, 10 μM) was 70%, the “Growth Percent” value (A549/ATCC; A549/ATCC, 1.00E-5 Molar) was 30.48% and the LC50 (A549/ATCC; A549/ATCC, 5-dose) was less than 100 µM. For the same compound, the TGI (A549/ATCC; A549/ATCC, 5-dose) was less than 100 µM, the TGI (A549/ATCC; A549/ATCC, 5-dose, listed as D - 835857) was greater than 1.00E-4 Molar and the LC50 (A549/ATCC; Homo sapiens, A549, A549/ATCC, 5-dose) was greater than 100 µM. It also gave a GI50 (A549/ATCC; Homo sapiens, A549/ATCC, 5-dose) of 8.31 µM, a CC50 (SF-268; Homo sapiens, SF-268, SF-268, 5-dose) greater than 100 µM and a GI50 (SF-268; Homo sapiens, SF-268, 5-dose) of 14.3 µM. The GI% (SF-268; SF-268, 10 μM) was 89%, the “Growth Percent” value (SF-268; SF-268, 1.00E-5 Molar) was 11.24% and the TGI (SF-268; SF-268, 5-dose) was less than 100 µM. It also gave a TGI (SF-268; SF-268, 5-dose, listed as D - 835857) greater than 1.00E-4 Molar, a CC50 (SF-268; SF-268, 5-dose) of less than 100 µM and a GI% (DU-145; DU-145, 10 μM) of 81%. For the same compound, the “Growth Percent” value (DU-145; DU-145, 1.00E-5 Molar) was 19.37%, the TGI (DU-145; DU-145, 5-dose) was less than 100 µM and the TGI (DU-145; DU-145, 5-dose, listed as D - 835857) was greater than 1.00E-4 Molar. It also gave a CC50 (DU-145; DU-145, 5-dose) of less than 100 µM, a CC50 (DU-145; Homo sapiens, DU-145, DU-145, 5-dose) greater than 100 µM and a GI50 (DU-145; Homo sapiens, DU-145, 5-dose) of 17.7 µM. For the same compound, the GI50 (MDA-MB-231; Homo sapiens, MDA-MB-231) was 17.2 µM, the CC50 (MDA-MB-231; Homo sapiens, MDA-MB-231, MDA-MB-231, 5-dose) was less than 100 µM and the CC50 (MDA-MB-231; Homo sapiens, MDA-MB-231, MDA-MB-231/ATCC, 5-dose) was greater than 100 µM. The GI% (MDA-MB-231; MDA-MB-231, 10 μM) was 65%, the TGI (MDA-MB-231; MDA-MB-231, 5-dose) was 59.7 µM and the “Growth Percent” value (MDA-MB-231; MDA-MB-231/ATCC, 1.00E-5 Molar) was 35.40%. It also gave a TGI (MDA-MB-231; MDA-MB-231/ATCC, 5-dose) of 5.97E-5 Molar, a GI50 (UO-31; [3]) of 7.33 µM and a CC50 (UO-31; [3]) greater than 100 µM. For the same compound, the GI% (UO-31; UO-31, 10 μM) was 87%, the “Growth Percent” value (UO-31; UO-31, 1.00E-5 Molar) was 12.56% and the GI50 (UO-31; UO-31, 5-dose) was 7.3 µM. It also gave a TGI (UO-31; UO-31, 5-dose) of 77.9 µM, a TGI (UO-31; UO-31, 5-dose, listed as D - 835857) of 7.79E-5 Molar and a CC50 (UO-31; UO-31, 5-dose) of less than 100 µM. For the same compound, the GI% (NCI-H322M; 10 μM) was 66%, the “Growth Percent” value (NCI-H322M; 1.00E-5 Molar) was 33.77% and the TGI (NCI-H322M; 5-dose) was less than 100 µM. It also gave a TGI (NCI-H322M; 5-dose, listed as D - 835857) greater than 1.00E-4 Molar, a CC50 (NCI-H322M; 5-dose) of less than 100 µM and a GI50 (NCI-H322M; Homo sapiens, 5-dose) of 13.6 µM. The CC50 (NCI-H322M; Homo sapiens, 5-dose) was greater than 100 µM, the CC50 (SN12C; Homo sapiens, SN12C, 5-dose) was greater than 100 µM and the CC50 (SN12C; [4]) was less than 100 µM. The GI50 (SN12C; [4]) was 11 µM, the GI% (SN12C; SN12C, 10 μM) was 78% and the “Growth Percent” value (SN12C; SN12C, 1.00E-5 Molar) was 22.24%. The TGI (SN12C; SN 12 C, 5-dose) was 60.4 µM, the TGI (SN12C; SN12C, 5-dose) was 6.04E-5 Molar and the GI% (COLO 205; COLO 205, 10 μM) was “– (Only GI% higher than 20% are shown)”. For the same compound, the “Growth Percent” value (COLO 205; COLO 205, 1.00E-5 Molar) was 80.94%, the TGI (COLO 205; COLO 205, 5-dose) was 41.0 µM and the TGI (COLO 205; COLO 205, 5-dose, listed as D - 835857) was 4.10E-5 Molar. For the same compound, the GI50 (COLO 205; Homo sapiens, COLO 205, 5-dose) was 17.8 µM, the LC50 (concentration killing 50% of cells) (COLO 205; Homo sapiens, COLO 205, 5-dose) was 94.1 µM and the GI50 (RPMI-8226; [5]) was 4.44 µM. The CC50 (RPMI-8226; [5]) was greater than 100 µM, the GI% (RPMI-8226; RPMI-8226, 10 μM) was 83% and the “Growth Percent” value (RPMI-8226; RPMI-8226, 1.00E-5 Molar) was 17.08%. For the same compound, the GI50 (RPMI-8226; RPMI-8226, 5-dose) was 4.4 µM, the TGI (RPMI-8226; RPMI-8226, 5-dose) was less than 100 µM and the TGI (RPMI-8226; RPMI-8226, 5-dose, listed as D - 835857) was greater than 1.00E-4 Molar. For the same compound, the CC50 (RPMI-8226; RPMI-8226, 5-dose) was less than 100 µM, the GI% (HCT-15; HCT-15, 10 μM) was 95% and the “Growth Percent” value (HCT-15; HCT-15, 1.00E-5 Molar) was 4.66%. The GI50 (HCT-15; HCT-15, 5-dose) was 5.8 µM, the LC50 (HCT-15; HCT-15, 5-dose) was less than 100 µM and the TGI (HCT-15; HCT-15, 5-dose) was 28.7 µM. The TGI (HCT-15; HCT-15, 5-dose, listed as D - 835857) was 2.87E-5 Molar, the GI50 (HCT-15; [6]) was 5.82 µM and the LC50 (HCT-15; [6]) was greater than 100 µM. For the same compound, the GI% (SR; 10 μM) was 81%, the “Growth Percent” value (SR; 1.00E-5 Molar) was 18.56% and the LC50 (50% lethal concentration) (SR; 5-dose) was less than 100 µM. It also gave a TGI (SR; 5-dose) of less than 100 µM, a TGI (SR; 5-dose, listed as D - 835857) greater than 1.00E-4 Molar and a GI50 (SR; Homo sapiens, 5-dose) of 10.3 µM. It also gave an LC50 (50% lethal concentration) (SR; Homo sapiens, 5-dose) greater than 100 µM.

From PMC10035947, “Development of novel anilinoquinazoline-based carboxylic acids as non-classical carbonic anhydrase IX and XII inhibitors” (Journal of Enzyme Inhibition and Medicinal Chemistry, 2023)
